These results are taken from patent publication US20240315994A1, “SMALL MOLECULE MODULATORS OF FERROPTOSIS” (ARPEGGIO BIOSCIENCES, INC., priority 2021, published 2024).

The subject of experiment [1] is HT-1080 fibrosarcoma cells. As to the kind of experiment: HT-1080 viability dose response in presence or absence of ferrostatin-1 or liproxstatin-1. In kind it is cell-based. The note with it: HT-1080 cells, 100 μM to 100 nM, 48 hours, with/without 1.5 μM ferrostatin-1. The protocol: To determine whether the reduction in cell viability by the compounds identified in FIG. 1 is driven by induction of ferroptosis, we performed dose response curves for each compound in the presence or absence of ferrostatin-1 or liproxstatin-1, which prevent ferroptosis by functioning as radical trapping antioxidants at cellular membranes. Briefly, HT-1080 fibrosarcoma cells were plated 24 hours prior to treatment with a range of concentrations of each inhibitor compound ranging from 100 μM to 100 nM in the presence or absence of 1 μM liproxstatin-1 or 1.5 µM ferrostatin-1. Cell Titer Glo® was used to read out cell viability after 48 hours compound exposure. Data was collected in triplicate.
Compounds from the Enamine covalent inhibitor library with similar structures to compounds 8216, 6666 or 1816 were further screened for inducing cell death via ferroptosis. Briefly, HT-1080 fibrosarcoma cells were plated on black-sided clear bottom plates 24 hours prior to treatment, with or without the addition of 2× ferrostatin-1, which inhibits the process of ferroptosis and rescues cells from undergoing this form of cell death. Compounds were diluted in DMSO and media then added to the cells for a total of 24 hours at which point cell viability was read out via Cell Titer Glo. Compounds were tested at […] ranging from 50 μM to 5 nM at half log dilutions.
FIG. 14 is a panel of plots 1400 showing relative viability of HT-1080 fibrosarcoma cells exposed to 15 inhibitor compounds with similar structures to 8216, 6666, or 1816 tested over a range of concentrations from 50 μM to 5 nM at half log dilutions in the presence of (red line) and absence of (black line) 1.5 μM ferrostatin-1. Ferrostatin-1 is a lipophilic antioxidant which inhibits the process of ferroptosis and rescues cells from undergoing this form of cell death. The black line is the relative HT-1080 fibrosarcoma cell viability in the absence of ferrostatin-1 and the red line is the relative HT-1080 fibrosarcoma cell viability in the presence of 1.5 μM ferrostatin-1. HT-1080 fibrosarcoma cells were plated on side-blackened, clear bottom plates 24 hours prior to treatment, with or without the addition of 2× ferrostatin-1. Each compound was diluted in DMSO and media and then added to the cells for a total of 24 hours, at which point cell viability was read out via Cell Titer Glo.

For a further experiment, the target named is T1, recombinant GPX4 protein (Homo sapiens, UniProt P36969).
T1 construct: purchased Cayman Chemical SO960203
T1 sequence (P36969 1-197): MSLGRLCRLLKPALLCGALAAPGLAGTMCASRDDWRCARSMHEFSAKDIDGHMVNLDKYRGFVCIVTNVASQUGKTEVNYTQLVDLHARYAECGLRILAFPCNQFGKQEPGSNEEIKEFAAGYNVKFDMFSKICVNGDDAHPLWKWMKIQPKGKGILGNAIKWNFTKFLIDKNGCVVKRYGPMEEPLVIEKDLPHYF
As to the kind of experiment: GPX4 inhibitor screening assay (Cayman Chemical cat #701880). The note with it: for GPX4 inhibitory capacity in vitro: 25 μM, one hour incubation with recombinant GPX4; for EC50: stated with the FIG. 6/FIG. 7 binding and GPX4 enzymatic results, assay behind the EC50 not named, read-out: EC50 (half maximal effective concentration). In kind it is biochemical. The protocol: To determine whether the five ferroptosis-inducing compounds (1816, 8216, 3362, 1962, and 0973) inhibit GPX4 enzymatic activity in vitro, we used a commercially available GPX4 inhibitor screening kit (Cayman Chemical cat #701880). This assay measures a compound's ability to prevent cumene hydroperoxide reduction by recombinant GPX4 protein. Briefly, the five ferroptosis-inducing compounds (25 μM) were incubated with recombinant GPX4 protein for one hour before being run in the Cayman Chemicals GPX4 inhibitor screening assay according to manufacturer's recommendations. The assay read out is a change in absorbance between NADPH and NADP. ML162 (25 μM) and RSL3 (25 μM) were used as positive control compounds.
An enzymatic assay that measures the reduction of […] by GPX4 was used to test the ability of compounds 8216, 6666, 8147, and 3793 to inhibit the activity of GPX4. The enzymatic assay was performed using a commercially available kit (Cayman cat #701880). The compounds were tested at 8 concentrations in duplicate with the compound being diluted following manufacturer's instructions. The enzymatic reaction was allowed to continue for 1 hour prior to reading out the kinetic shift in absorbance that occurs as result of GPX4 […].

Experiment [2] relates to HT-1080 fibrosarcoma cells. As to the kind of experiment: Bodipy C-11 lipid peroxidation imaging in HT-1080 cells. Format: cell-based. The note with it: 10 μM, 1 hour, with or without 1.5 μM ferrostatin-1, ferrostatin-1 rescued. Here is the method: Compounds 6666, 6047, […], 8216, and 8147 were also evaluated for inducing lipid peroxidation in HT-1080 fibrosarcoma cells in the presence or absence of 1.5 µM ferrostatin-1. Briefly, HT-1080 fibrosarcoma cells were treated with 10 µM of compound with or without 1.5 μM ferrostatin-1 and incubated at 37° C. for 1 hour. Bodipy C-11 and Hoescht stain were then added to the media, the cells were allowed to incubate for an additional 30 minutes and then were imaged on the Opera Phenix confocal screening system.

The subject of experiment [3] is HK-2 kidney epithelial cells. As to the kind of experiment: HK-2 kidney epithelial cell viability dose response (Cell Titer Glo). In kind it is cell-based. The note with it: healthy HK-2 vs cancer HT-1080 cells. Here is the method:
To test whether the ferroptosis-inducing compounds 8216 or 1962 display selectivity for cancer cells we performed a dose response study in HK-2 kidney epithelial cells. HK-2 kidney epithelial cells are a non-cancerous cell line that is commonly used as a “healthy” control in ferroptosis experiments. Briefly, HK-2 kidney epithelial cells were plated 24 hours prior to treatment with concentrations of the ferroptosis-inducing compounds 8216 or 1962 ranging from 10 µM to 10 nM. The ferroptosis-inducing compound RSL3 was used as a positive control. As an additional control, we included a non-specific inducer of apoptosis, staurosporine. Cell Titer Glo® was used to read out cell viability after 48 hours of compound exposure. Data was collected in triplicate.
To determine whether the reduction in viability of HK-2 renal epithelial cells exposed to compounds 8216 or 1962 is driven by induction of ferroptosis, we performed dose response curves for each compound in the presence or absence of ferrostatin-1. We also compared the EC50s for each compound between healthy cells (HK-2 renal epithelial cells) and cancer cells (HT-1080 fibrosarcoma cells) to determine a therapeutic window for healthy vs diseased cells. […] Cell Titer Glo® was used to read out cell viability after 48 hours of compound exposure. […]

With `CCCCCN(C(=O)CCl)c1c(N)n(CCCC)c(=O)[nH]c1=O` [Compound 1816], in experiment [1], the “cell death and rescue by ferrostatin-1” value is given as “cell death that was rescued by the addition of the antioxidant ferrostatin-1”. The “GPX4 inhibitory capacity in vitro” value at recombinant GPX4 protein is reported as “do not inhibit GPX4 enzymatic activity in vitro”.
Turning to `O=C(CCl)N1c2ccccc2OC[C@@H]1c1ccccc1` [Compound 1962], in experiment [1], the “cell death and rescue by ferrostatin-1” value is reported as “cell death that was rescued by the addition of the antioxidant ferrostatin-1”. Moreover, on recombinant GPX4 protein, the “GPX4 inhibitory capacity in vitro” value is reported as “exhibit potent GPX4 inhibitory capacity” and the EC50 was about 440 nM.
Regarding `CCOc1ccc(C[C@@H]2c3cc(OCC)c(OCC)cc3CCN2C(=O)CCl)cc1OCC` [Compound 3362], the “cell death and rescue by ferrostatin-1” value in experiment [1] was “cell death that was rescued by the addition of the antioxidant ferrostatin-1”. Further, the “GPX4 inhibitory capacity in vitro” value at recombinant GPX4 protein is “do not inhibit GPX4 enzymatic activity in vitro”.
Turning to `O=C(CCl)N(Cc1ccc(F)cc1)C1CCCCC1` [Compound 8216], in experiment [1], the “cell death and rescue by ferrostatin-1” value is “cell death that was rescued by the addition of the antioxidant ferrostatin-1”. Also, in experiment [2], the “lipid peroxidation (Bodipy C-11 emission shift)” value is reported as “shift in emission reflective of lipid peroxidation”. In addition, the “therapeutic window (HK-2 vs HT-1080 EC50 difference)” value in experiment [3] is on record as “comparable to that of RSL3”. In addition, at recombinant GPX4 protein, the “GPX4 inhibitory capacity in vitro” value is reported as “exhibit potent GPX4 inhibitory capacity” and the EC50 is about 100 nM.
